Reference: patent US9630977B2, “Cephalosporin derivatives and pharmaceutical compositions thereof” (Legochem Biosciences, Inc., priority 2011, dated 2017)

Legend:
P. aeruginosa R1023 = experiment: In vivo efficacy, whole-body infected mouse model, Ceftazidime-resistant bacteria;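 for Survival rate: each column one dose of 5 10 20 or 40 mg/kg given sc at 1 h and 4 h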; parameters: species or system ICR mouse; conditions: for Survival rate: subcutaneous 1 h and 4 h after infection, P. aeruginosa R1023 (2 × 10^6 CFU/mouse), four days
Procedure: Pharmaceutical efficacy of the cephalosporin derivative compounds according to the present invention was evaluated in a whole-body infected mouse model. Tables 3 and 4 show survival rate and ED50 values for the two compounds with excellent antibacterial activity with regard to an infected mouse by a drug-sensitive bacteria and a drug-resistant bacteria.
Test animals: 3 week old male ICR mouse, weight 18˜22 g; 5 mice/group.
Lab conditions: Temperature of 23±2° C.; humidity of 55±20%.
Administration method: Inducing whole-body infection by bacterial solution followed by subcutaneous injection (0.2 mL) after 1 hour and 4 hours.
Test method: Cultured bacteria were diluted with 0.9% NaCl to prepare a bacterial solution having a concentration that is 5 to 10 times of […]. 0.5 mL of bacterial solution was injected through abdominal cavity to induce whole-body infection. Test compounds were administered in four different amounts, which were designed considering in vitro MIC values of the test bacteria. After 1 hour and 4 hours, the four different amounts of the test compounds were subcutaneously administered. Survival rates were measured for four days and ED50 values were calculated according to the Probit method.

[1] = test system: K. pneumoniae (38 clinical isolates); experiment: Antibacterial activity on representative drug-resistance bacteria: number of clinical isolates per MIC value; format: cell-based; conditions: K. pneumomiae (N = 38)
Procedure: (§1) The in vitro antibacterial activity was evaluated by measuring MIC90 (ug/mL) of each of the compounds of Examples 1 to 68, which is defined as the lowest concentration of an antibiotic that will inhibit the visible growth of 90% of microorganisms after incubation as compared with a control group to which the antibiotic is not treated. MIC90 values were measured by the broth microdilution method developed by the Clinical and Laboratory Standards Institute (CLSI) (see CLSI M7-A5, Methods for Dilution Antimicrobial Susceptibility Test for Bacteria that Grow Aerobically-Fifth Edition (2000): CLSI, Villanova, Pa.).
(§2) Test compounds each (the cephalosporin derivative compounds prepared in Examples 1 to 68) were dissolved in DMSO at the concentration of 10,240 ug/mL, were diluted by two fold with DMSO, and then were diluted by twenty fold with sterilized distilled water. The final concentration in the antibacterial activity test was in the range of […] to 128 ug/mL, and the final concentration of DMSO used as an adjuvant was 2.5% (V/V).

[2] = test system: A. baumannii (6 clinical isolates); experiment: as above; format: cell-based; conditions: A. baumanni (N = 6)
Procedure: as §1, §2

[3] = test system: P. aeruginosa (16 clinical isolates); experiment: as above; format: cell-based; conditions: P. aeruginosa (N = 16)
Procedure: as §1, §2

## C[C@@H](O)[C@H]1C(=O)N2C(C(=O)O)=C(S[C@@H]3CN[C@H](CNS(N)(=O)=O)C3)[C@H](C)[C@H]12 [Doripenem, reference compound]
P. aeruginosa R1023; Pseudomonas aeruginosa, sc, Probit method, subcutaneous, mouse infected by Ceftazidime-resistant P. aeruginosa R1023
  ED50: 28 mg/kg
P. aeruginosa R1023; administered amount 5 mg/kg
  Survival rate: 0%
P. aeruginosa R1023; administered amount 10 mg/kg
  Survival rate: 20%
P. aeruginosa R1023; administered amount 20 mg/kg
  Survival rate: 20%
P. aeruginosa R1023; administered amount 40 mg/kg
  Survival rate: 80%
[1]; MIC 0.0625 ug/mL
  number of clinical isolates that showed the respective MIC value: 1
[1]; MIC 0.125 ug/mL
  number of clinical isolates that showed the respective MIC value: 6
[1]; MIC 0.25 ug/mL
  number of clinical isolates that showed the respective MIC value: 3
[1]; MIC 0.5 ug/mL
  number of clinical isolates that showed the respective MIC value: 5
[1]; MIC 1 ug/mL
  number of clinical isolates that showed the respective MIC value: 6
[1]; MIC 2 ug/mL
  number of clinical isolates that showed the respective MIC value: 5
[1]; MIC 8 ug/mL
  number of clinical isolates that showed the respective MIC value: 4
[1]; MIC 16 ug/mL
  number of clinical isolates that showed the respective MIC value: 2
[1]; MIC <0.0625 ug/mL
  number of clinical isolates that showed the respective MIC value: 6
[2]; MIC 16 ug/mL
  number of clinical isolates that showed the respective MIC value: 1
[2]; MIC >16 ug/mL
  number of clinical isolates that showed the respective MIC value: 5
[3]; MIC 4 ug/mL
  number of clinical isolates that showed the respective MIC value: 1
[3]; MIC 8 ug/mL
  number of clinical isolates that showed the respective MIC value: 1
[3]; MIC 16 ug/mL
  number of clinical isolates that showed the respective MIC value: 5
[3]; MIC >16 ug/mL
  number of clinical isolates that showed the respective MIC value: 9
